Assay results reported in PubChem BioAssay AID328 (DTP/NCI, 2004).
Inconclusive results and toxic doses are left out. How the source made its calls: active means survival T/C of 150% or more; inactive means T/C below 125% in these data. Residues, ends and D or L forms follow the SMILES beside them.

Test system: BDF1 mice, P388 leukemia ip, median survival T/C
Assay: NCI In Vivo Anticancer Drug Screen. Data for tumor model P388 Leukemia (intraperitoneal) in B6D2F1 (BDF1) mice
Details: endpoint: median survival time, higher = longer survival
How it was run: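 Each value expresses how treatment altered survival: treated-mouse outcome over vehicle-mouse outcome, both groups bearing the transplanted tumour.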

[1] = dose: 50.0 mg/kg/injection, schedule: Q01DX009 (ip), vehicle: saline
[2] = dose: 100.0 mg/kg/injection, schedule: Q01DX009 (ip), vehicle: saline
[3] = dose: 200.0 mg/kg/injection, schedule: Q01DX009 (ip), vehicle: saline
[4] = dose: 100.0 mg/kg/injection, schedule: Q04DX003 (ip), vehicle: saline with Tween-80
[5] = dose: 200.0 mg/kg/injection, schedule: Q04DX003 (ip), vehicle: saline with Tween-80
[6] = dose: 400.0 mg/kg/injection, schedule: Q04DX003 (ip), vehicle: saline with Tween-80
[7] = dose: 100.0 mg/kg/injection, schedule: Q01DX009 (ip), vehicle: saline with Tween-80
[8] = dose: 200.0 mg/kg/injection, schedule: Q01DX009 (ip), vehicle: saline with Tween-80
[9] = dose: 400.0 mg/kg/injection, schedule: Q01DX009 (ip), vehicle: saline with Tween-80
[10] = dose: 50.0 mg/kg/injection, schedule: Q01DX009 (ip), vehicle: saline with Tween-80
[11] = dose: 100.0 mg/kg/injection, schedule: Q04DX003 (ip), vehicle: Klucel (hydroxypropylcellulose) (HPC)
[12] = dose: 100.0 mg/kg/injection, schedule: Q01DX009 (ip), vehicle: Klucel (hydroxypropylcellulose) (HPC)
[13] = dose: 200.0 mg/kg/injection, schedule: Q01DX009 (ip), vehicle: Klucel (hydroxypropylcellulose) (HPC)
[14] = dose: 25.0 mg/kg/injection, schedule: Q01DX009 (ip), vehicle: saline with Tween-80
[15] = dose: 200.0 mg/kg/injection, schedule: Q04DX003 (ip), vehicle: saline
[16] = dose: 400.0 mg/kg/injection, schedule: Q04DX003 (ip), vehicle: saline

Measured: T/C

CC/C(=N\NS(=O)(=O)c1ccc(C)cc1)c1ccc(OC)c(OC)c1
inactive: [1] 96 % of control | [2] 96 % of control | [3] 92 % of control

CCCNC(=O)Nc1ccc(C(=O)OCC(C)C)cc1
inactive: [4] 104 % of control | [5] 100 % of control | [6] 100 % of control

C[C@]12[C@@H]3CC(=O)C[C@@]1(CC[C@@H]1[C@@H]2CC[C@]2(C)OC(=O)CC[C@@H]12)SS3
inactive: [7] 100 % of control | [4] 104 % of control | [8] 91 % of control | [5] 90 % of control | [9] 95 % of control | [6] 90 % of control

O=C(C1=Cc2ccccc2OC1)N1CCN(C(=O)C2=Cc3ccccc3OC2)CC1
inactive: [4] 91 % of control | [5] 91 % of control | [6] 86 % of control

CCCC(Cc1ccccc1)(C(=O)OCC)C(=O)OCC
inactive: [4] 99 % of control | [5] 99 % of control | [6] 91 % of control

O=C(O)CCNSc1ccccc1[N+](=O)[O-]
inactive: [10] 106 % of control | [7] 106 % of control

O=C1N(Cl)C(=O)C(c2ccccc2)(c2ccc(F)cc2)N1Cl (stereo not drawn)
inactive: dose: 25.0 mg/kg/injection, schedule: Q04DX003 (ip), vehicle: Klucel (hydroxypropylcellulose) (HPC) 87 % of control | dose: 50.0 mg/kg/injection, schedule: Q04DX003 (ip), vehicle: Klucel (hydroxypropylcellulose) (HPC) 100 % of control | [11] 91 % of control

O=C1OC(=C(c2ccccc2)c2ccccc2)c2ccccc21
inactive: dose: 50.0 mg/kg/injection, schedule: Q01DX009 (ip), vehicle: Klucel (hydroxypropylcellulose) (HPC) 100 % of control | [12] 100 % of control | [13] 100 % of control

O=C1OC2(CCCCC2)Cc2oc3ccccc3c(=O)c21
inactive: dose: 50.0 mg/kg/injection, schedule: Q01DX005 (ip), vehicle: Klucel (hydroxypropylcellulose) (HPC) 87 % of control | dose: 200.0 mg/kg/injection, schedule: Q01DX005 (ip), vehicle: Klucel (hydroxypropylcellulose) (HPC) 92 % of control

NC(N)=Nc1cccc(C(F)(F)F)c1
inactive: [10] 94 % of control | [7] 100 % of control | [8] 109 % of control

COC(=O)C1CN1C(c1ccccc1)(c1ccccc1)c1ccccc1 (stereo not drawn)
inactive: [8] 95 % of control | [9] 87 % of control

ClC(Cl)(Cl)C(Cl)(Cl)c1ccc(C(Cl)(Cl)C(Cl)(Cl)Cl)cc1
inactive: dose: 18.75 mg/kg/injection, schedule: Q01DX009 (ip), vehicle: saline with Tween-80 100 % of control | dose: 37.5 mg/kg/injection, schedule: Q01DX009 (ip), vehicle: saline with Tween-80 100 % of control | dose: 75.0 mg/kg/injection, schedule: Q01DX009 (ip), vehicle: saline with Tween-80 100 % of control | dose: 100.0 mg/kg/injection, schedule: Q04DX003 (ip), vehicle: saline sonified 100 % of control | [8] 92 % of control | dose: 400.0 mg/kg/injection, schedule: Q04DX003 (ip), vehicle: saline sonified 95 % of control

O=C(Nc1cccc(C2=NCCN2)c1)c1ccc(C(=O)Nc2cccc(C3=NCCN3)c2)c(Cl)c1
inactive: dose: 1.0 mg/kg/injection, schedule: Q01DX010 (ip), vehicle: water 100 % of control | dose: 2.0 mg/kg/injection, schedule: Q01DX010 (ip), vehicle: water 100 % of control | dose: 4.0 mg/kg/injection, schedule: Q01DX010 (ip), vehicle: water 100 % of control

COc1cc2ccc(CC(=O)NCCc3ccc4c(c3)OCO4)cc2cc1OC
inactive: [11] 100 % of control | dose: 200.0 mg/kg/injection, schedule: Q04DX003 (ip), vehicle: Klucel (hydroxypropylcellulose) (HPC) 90 % of control | dose: 400.0 mg/kg/injection, schedule: Q04DX003 (ip), vehicle: Klucel (hydroxypropylcellulose) (HPC) 90 % of control

CC(C)C(N)C(=O)NC(Cc1ccc(O)cc1)C(=O)NC(C(=O)O)C(C)C (stereo not drawn) (H-Val-Tyr-Val-OH; configuration not given here)
inactive: dose: 50.0 mg/kg/injection, schedule: Q01DX005 (ip), vehicle: saline 89 % of control | dose: 100.0 mg/kg/injection, schedule: Q01DX005 (ip), vehicle: saline 97 % of control | dose: 200.0 mg/kg/injection, schedule: Q01DX005 (ip), vehicle: saline 92 % of control

Nc1ccc(N=Nc2ccccc2)c(N)c1
inactive: [14] 88 % of control | [10] 99 % of control | [12] 91 % of control | [7] 113 % of control | [2] 120 % of control | dose: 100.0 mg/kg/injection, schedule: Q04DX003 (ip), vehicle: saline 86 % of control | [13] 100 % of control | [8] 115 % of control | [15] 100 % of control | dose: 400.0 mg/kg/injection, schedule: Q01DX009 (ip), vehicle: saline 115 % of control | [16] 104 % of control

CC(O)C(=O)Oc1ccccc1 (stereo not drawn)
inactive: [2] 90 % of control | [3] 109 % of control

CCN(CC)CCCC(C)NCCCN (stereo not drawn)
inactive: [1] 96 % of control | [2] 96 % of control | [3] 94 % of control

C=CN1C(=O)NC(C)(CC(C)C)C1=O (stereo not drawn)
inactive: [7] 93 % of control | [8] 104 % of control | [9] 104 % of control

c1ccc(CN(CCNc2ccccc2)c2ccccc2)cc1
inactive: dose: 0.78 mg/kg/injection, schedule: Q01DX009 (ip), vehicle: water 106 % of control | dose: 1.56 mg/kg/injection, schedule: Q01DX009 (ip), vehicle: water 104 % of control | dose: 3.12 mg/kg/injection, schedule: Q01DX009 (ip), vehicle: water 108 % of control | dose: 6.25 mg/kg/injection, schedule: Q01DX009 (ip), vehicle: water 104 % of control | dose: 12.5 mg/kg/injection, schedule: Q01DX009 (ip), vehicle: water 106 % of control | dose: 25.0 mg/kg/injection, schedule: Q01DX009 (ip), vehicle: water 92 % of control | dose: 50.0 mg/kg/injection, schedule: Q01DX009 (ip), vehicle: water 92 % of control | dose: 50.0 mg/kg/injection, schedule: Q04DX003 (ip), vehicle: water 100 % of control | dose: 100.0 mg/kg/injection, schedule: Q01DX009 (ip), vehicle: water 115 % of control | dose: 100.0 mg/kg/injection, schedule: Q04DX003 (ip), vehicle: water 98 % of control | dose: 200.0 mg/kg/injection, schedule: Q01DX009 (ip), vehicle: water 97 % of control | dose: 200.0 mg/kg/injection, schedule: Q04DX003 (ip), vehicle: water 103 % of control

CC(C(O)c1ccc(Br)cc1)C(O)(C(F)(F)F)C(F)(F)F (stereo not drawn)
inactive: dose: 100.0 mg/kg/injection, schedule: Q04DX003 (ip), vehicle: other 100 % of control | dose: 200.0 mg/kg/injection, schedule: Q04DX003 (ip), vehicle: other 100 % of control | dose: 400.0 mg/kg/injection, schedule: Q04DX003 (ip), vehicle: other 100 % of control

O=C1c2ccccc2C(=O)N1CCCn1c2ccccc2c2cnccc21
inactive: [7] 105 % of control | [4] 95 % of control | [8] 90 % of control | [5] 100 % of control | [9] 110 % of control | [6] 90 % of control

Nc1ccc2c(-c3ccc([N+](=O)[O-])cc3)cc(=O)[nH]c2n1
inactive: [15] 100 % of control | [16] 97 % of control

O=C1C=C(SCCO)C(=O)c2ccccc21
inactive: dose: 0.37 mg/kg/injection, schedule: Q04DX003 (ip), vehicle: saline 100 % of control | dose: 0.75 mg/kg/injection, schedule: Q04DX003 (ip), vehicle: saline 104 % of control | dose: 1.5 mg/kg/injection, schedule: Q04DX003 (ip), vehicle: saline 109 % of control

CCN(/C=C/C=C1C(=O)N(C)C(=O)N(C)C1=O)CC
inactive: [1] 100 % of control | [2] 102 % of control | [3] 100 % of control

O=C(/C=C/C=C/c1ccccc1)c1ccc(Cl)cc1
inactive: [7] 115 % of control | [4] 100 % of control | [8] 115 % of control | [5] 90 % of control | [9] 110 % of control | [6] 109 % of control

Cc1c(C#N)c2n(c1C)CCCC(=O)N2
inactive: [14] 95 % of control | [10] 109 % of control | dose: 50.0 mg/kg/injection, schedule: Q04DX003 (ip), vehicle: saline with Tween-80 91 % of control | [7] 104 % of control | [4] 91 % of control | [8] 100 % of control | [5] 87 % of control | [6] 91 % of control

CCCCC(=O)/C=C/c1ccccc1
inactive: [10] 102 % of control | [7] 109 % of control | [8] 120 % of control
